Measured values taken from patent US4424342A, “Anthracycline antibiotic compounds” (priority 1981, dated 1984).
Converted amounts (≈) assume the structure as drawn. “Also recorded” adds a separate entry of the source. Read-outs that look alike come from different tables or passages of the source.

What was measured:
[1] = test system: L1210 leukemia cells, RNA synthesis; test: RNA synthesis inhibition in L1210 leukemia culture cells (14C-uridine incorporation); format: cell-based, mouse; conditions: for IC50: Mus musculus
Protocol: (§1) The 50% inhibitory concentration of trisarubicinol on L1210 leukemia cells was calculated by culturing 5×10^4 cells/ml at 37° C. in 5% CO2 -air in 20% calf serum-supplemented RPMI 1640 medium (Roswell Park Memorial Institute 1640 medium) containing none (control), 0.01 and 0.05 μg/ml of trisarubicinol. In addition. the inhibitory effect of the new anthracycline compound on nucleic acid synthesis was examined as follows: after 5×10^5 cells/ml of L1210 leukemia cells were preincubated in 5% CO2 -air at 37° C. for 1-2 hours in RPMI medium containing 10% calf serum, varied concentrations of trisarubicinol were added and incubated for 15 minutes under the same conditions. Then 0.05 μCi/ml each of ^14 C-uridine or ^14 C-thymidine was added to the cell suspensions and the mixtures were incubated at 37° C. for a further 60 minutes. At the end of incubation, cold 10% trichloroacetic acid was added to stop the incorporation of the radio-labelled compound. The acid-insoluble fractions were collected by centrifugation; rinsed three times with 5% trichloroacetic acid; and dissolved in formic acid for radiometry. The 50% inhibitory concentration of the new anthracycline compound was calculated from the radiometric data of the acid-insoluble fractions of the control and test reaction mixtures.

[2] = test system: L1210 leukemia cells, DNA synthesis; test: DNA synthesis inhibition in L1210 leukemia culture cells (14C-thymidine incorporation); format: cell-based; conditions: Mus musculus
Protocol: as §1

L1210 mouse leukemia = test: In vivo activity on L1210 mouse leukemia, prolongation of survival time; parameters: species or system mouse (CDF1 mice); conditions: for prolongation of survival time (T/C): i.p. every day for 10 days, CDF1 mice
Protocol: The therapeutic effect of trisarubicinol was examined by calculating the prolongation of the survival time of treated animals relative to untreated ones (receiving physiological saline). In practice, 1×10^5 mouse leukemia cells each were intraperitoneally transplanted into CDF1 mice and varied doses of trisarubicinol were intraperitoneally injected every day for 10 days from 24 hours after cell transplantation.

Acute toxicity = format: in vivo
L1210 leukemia cells = test: Growth inhibition of L1210 leukemia culture cells in vitro; format: cell-based, mouse; conditions: for IC50: Mus musculus
Protocol: as §1

[3] = test system: various experimental tumors in animals; test: Antitumor activity on various experimental tumors in animals; conditions: in vivo

Row | Structure (SMILES) | IC50 ([1]; L1210, read-out: 50% inhibitory concentration (IC50), RNA synthesis inhibition) [µg/mL] | RNA synthesis inhibition compared with carminomycin I (in words) ([1]; at very low concentrations, versus carminomycin I) | IC50 ([2]; L1210, read-out: 50% inhibitory concentration (IC50), DNA synthesis inhibition) [µg/mL] | effect on survival time of leukemia cells-holding mice / therapeutic effect (in words) (L1210 mouse leukemia; L1210 mouse leukemia) | prolongation of survival time (T/C) (L1210 mouse leukemia; dose 0.63 (head prints "%")) [%] | prolongation of survival time (T/C) (L1210 mouse leukemia; dose 1.25 (head prints "%")) [%] | prolongation of survival time (T/C) (L1210 mouse leukemia; dose 2.5 (head prints "%")) [%] | prolongation of survival time (T/C) (L1210 mouse leukemia; dose 5.0 (head prints "%")) [%] | prolongation of survival time (T/C) (L1210 mouse leukemia; dose 7.5 (head prints "%")) [%] | prolongation of survival time (T/C) (L1210 mouse leukemia; dose 10 (head prints "%")) [%] | LD50 (Acute toxicity; in vivo, ip) [mg/kg] | toxicity (in words) (Acute toxicity; relative to carminomycin I, general statement) | growth inhibition of L1210 cells (in words) (L1210 leukemia cells; L1210 cultured cells / at low doses) | IC50 (L1210 leukemia cells; L1210, read-out: 50% inhibitory concentration (IC50), cell growth inhibition) [µg/mL] | antitumor activity compared with carminomycin I (in words) (L1210 leukemia cells; versus carminomycin I, L1210) | antitumor activity on various experimental tumors in animals (in words) [3] | IC50 ([1]; L1210 culture cells, 15 min with compound, then 60 min with 14C-uridine, read-out: 50% inhibitory concentration (IC50), RNA synthesis inhibition) [µg/mL] | IC50 ([2]; L1210 culture cells, 15 min with compound, then 60 min with 14C-thymidine, read-out: 50% inhibitory concentration (IC50), DNA synthesis inhibition) [µg/mL] | IC50 (L1210 leukemia cells; L1210 culture cells, 5×10^4 cells/ml, 37° C., 20% calf serum-supplemented RPMI 1640, read-out: 50% inhibitory concentration (IC50), cell growth inhibition) [µg/mL]
1 | CC(O)C1(O)Cc2c(O)c3c(c(O)c2C(O[C@H]2C[C@H](N(C)C)[C@H](O[C@H]4C[C@H](O)[C@H](O[C@H]5CCC(=O)[C@H](C)O5)[C@H](C)O4)[C@H](C)O2)C1)C(=O)c1c(O)cccc1C3=O (stereo partly shown) [trisarubicinol] | 0.06 (≈ 0.0764 µM) | better inhibition of RNA synthesis at very low concentrations | 0.38 (≈ 0.484 µM) | marked prolonging effect on the survival time of leukemia cells-holding mice; also recorded: strong therapeutic effect on mouse leukemia (L1210) | 122 | 124 | 159 | 216 | 243 | 131 | 40 to 50 | less toxic than carminomycin I; also recorded: unique low toxicity | markedly inhibits the growth and nucleic acid synthesis in cultured cells of mouse leukemia (L1210); also recorded: significantly inhibits the growth of L1210 mouse leukemia cells at low doses | 0.01 (≈ 0.0127 µM) | same or better antitumor activity | excellent antitumor activity on various experimental tumors in animals |  |  | 
2 | CC(=O)[C@]1(O)Cc2c(O)c3c(c(O)c2[C@@H](O[C@H]2C[C@H](N)[C@H](O)[C@H](C)O2)C1)C(=O)c1c(O)cccc1C3=O [carminomycin I, reference compound] |  |  |  |  |  |  |  |  |  |  |  |  |  |  |  |  | 0.29 (≈ 0.565 µM) | 0.2 (≈ 0.389 µM) | 0.01 (≈ 0.0195 µM)
